According to patent US9944603B2, “Compounds and methods for the treatment of cystic fibrosis” (Flatley Discovery Lab, LLC, priority 2013, dated 2018):

Target: T1, human F508del CFTR (Homo sapiens, UniProt P13569, DEL508-508)
T1 construct: expressed in transfected cells
Experiment: CFTR-YFP Assay, CFTR Corrector Protocol (YFP flux assay)
Assay type: cell-based
Conditions: for Emax: normalized to the positive control, read-out: EMAX (% Efficacy, EMAX normalized to the positive control)

T1 sequence (P13569 with tags, fused parts or gaps DEL508-508): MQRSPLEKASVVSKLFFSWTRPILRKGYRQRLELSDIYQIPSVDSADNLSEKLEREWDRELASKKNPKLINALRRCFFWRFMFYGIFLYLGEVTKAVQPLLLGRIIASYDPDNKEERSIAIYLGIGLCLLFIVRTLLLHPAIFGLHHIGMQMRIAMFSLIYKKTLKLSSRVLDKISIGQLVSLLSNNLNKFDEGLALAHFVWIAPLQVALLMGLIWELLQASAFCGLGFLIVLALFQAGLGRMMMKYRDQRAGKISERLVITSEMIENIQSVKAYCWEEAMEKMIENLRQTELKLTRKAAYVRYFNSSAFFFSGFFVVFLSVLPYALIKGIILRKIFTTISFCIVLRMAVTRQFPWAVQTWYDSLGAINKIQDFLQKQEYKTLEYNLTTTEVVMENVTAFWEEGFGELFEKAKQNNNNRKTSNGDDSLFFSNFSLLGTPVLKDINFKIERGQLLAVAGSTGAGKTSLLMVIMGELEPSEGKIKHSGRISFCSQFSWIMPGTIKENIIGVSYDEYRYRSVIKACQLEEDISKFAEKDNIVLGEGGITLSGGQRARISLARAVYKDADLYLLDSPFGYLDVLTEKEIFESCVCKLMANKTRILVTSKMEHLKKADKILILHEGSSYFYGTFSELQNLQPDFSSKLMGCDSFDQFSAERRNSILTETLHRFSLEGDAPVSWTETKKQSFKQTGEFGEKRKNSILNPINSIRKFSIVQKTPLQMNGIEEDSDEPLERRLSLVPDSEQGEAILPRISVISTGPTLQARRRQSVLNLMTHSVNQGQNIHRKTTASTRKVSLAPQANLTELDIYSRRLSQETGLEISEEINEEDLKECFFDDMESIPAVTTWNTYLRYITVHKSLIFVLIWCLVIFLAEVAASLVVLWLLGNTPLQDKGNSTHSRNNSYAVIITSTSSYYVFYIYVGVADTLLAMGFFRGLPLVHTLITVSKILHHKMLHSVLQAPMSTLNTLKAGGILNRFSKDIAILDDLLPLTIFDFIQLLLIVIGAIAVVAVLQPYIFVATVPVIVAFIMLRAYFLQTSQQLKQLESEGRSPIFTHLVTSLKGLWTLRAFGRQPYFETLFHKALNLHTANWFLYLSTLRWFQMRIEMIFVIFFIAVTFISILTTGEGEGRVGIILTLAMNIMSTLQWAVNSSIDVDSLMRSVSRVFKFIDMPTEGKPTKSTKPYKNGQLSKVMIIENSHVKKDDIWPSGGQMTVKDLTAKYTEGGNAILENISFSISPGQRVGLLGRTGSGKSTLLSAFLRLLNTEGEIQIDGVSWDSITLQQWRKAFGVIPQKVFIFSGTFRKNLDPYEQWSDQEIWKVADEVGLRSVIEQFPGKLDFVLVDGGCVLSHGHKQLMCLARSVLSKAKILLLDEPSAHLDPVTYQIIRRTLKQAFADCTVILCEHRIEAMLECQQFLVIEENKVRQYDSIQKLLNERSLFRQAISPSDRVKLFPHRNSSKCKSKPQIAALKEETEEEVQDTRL

Row | SMILES | EC50 [µM] | Emax [%]
1 | CCc1ccc(S(=O)(=O)N2CCC(N(c3ccccn3)S(=O)(=O)c3ccccc3)CC2)cc1 [Example 181] | < 10 | 30 to 80
2 | CCc1ccc(S(=O)(=O)N2CCC(N(c3cccc(Cl)n3)S(=O)(=O)c3ccccc3Cl)CC2)cc1 [Example 232] | < 10 | 10 to 30
3 | CCc1ccc(S(=O)(=O)N2CCC(N(C(=O)Nc3ccccc3Cl)c3ccccn3)CC2)cc1 [Example 177] | < 10 | 10 to 30
4 | CCc1ccc(S(=O)(=O)N2CCC(N(c3nccs3)S(=O)(=O)c3ccccc3Cl)CC2)cc1 [Example 231] | < 10 | 30 to 80
5 | CCc1ccc(S(=O)(=O)N2CCC(n3c(-c4ccncn4)nc4cccnc43)CC2)cc1 [Example 131] | < 10 | 10 to 30
6 | CC1Cc2cc(S(=O)(=O)N3CCC(n4c(-c5ccc(F)cc5F)nc5cccnc54)CC3)ccc2N1 (stereo not shown) [Example 149] | < 10 | 10 to 30
7 | O=S(=O)(c1ccc2c(c1)OC(F)(F)O2)N1CCC(n2c(-c3ccccc3)cc3ccccc32)CC1 [Example 104] | < 10 | 30 to 80
8 | [2H]C1([2H])Oc2ccc(S(=O)(=O)N3CCC(n4c(-c5cccnc5Cl)nc5cccnc54)CC3)cc2O1 [Example 135] | 10 to 20 | 10 to 30
9 | CCc1ccc(S(=O)(=O)N2CCC(N(c3cc(Cl)ccn3)S(=O)(=O)c3ccccc3Cl)CC2)cc1 [Example 233] | < 10 | 30 to 80
10 | O=S(=O)(c1ccc2c(c1)OC(F)(F)O2)N1CCC(n2c(-c3ccncc3Cl)nc3cccnc32)CC1 [Example 38] | < 10 | > 80
11 | O=S(=O)(c1ccc2c(c1)OC(F)(F)O2)N1CCC(n2c(-c3ccc(F)cc3F)nc3cccnc32)CC1 [Example 109] | < 10 | 30 to 80
12 | COc1ccc(S(=O)(=O)N2CCC(N(c3cccc(C)n3)S(=O)(=O)c3c(C)cc(C)cc3C)CC2)cc1Cl [Example 193] | < 10 | 30 to 80
13 | COc1ccc(S(=O)(=O)N2CCC(n3c(-c4ncc[nH]4)nc4cccnc43)CC2)cc1Cl [Example 75] | 10 to 20 | 30 to 80
14 | CCc1ccc(S(=O)(=O)N2CCC(n3c(-c4ccccc4Cl)nc4cc(O)ccc43)CC2)cc1 [Example 167] | > 20 | 10 to 30
15 | CCc1ccc(S(=O)(=O)N2CCC(N(c3ccc(Cl)cn3)S(=O)(=O)c3ccccc3Cl)CC2)cc1 [Example 230] | < 10 | 30 to 80
16 | O=S(=O)(N1CCOCC1)N1CCC(n2c(-c3ccccc3)nc3cccnc32)CC1 [Example 67] | > 20 | 10 to 30
17 | CCc1ccc(S(=O)(=O)N2CCC(N(c3cc(C)ccn3)S(=O)(=O)c3ccccc3Cl)CC2)cc1 [Example 240] | < 10 | 10 to 30
18 | CCc1ccc(S(=O)(=O)N2CCC(n3c(-c4ccncc4F)nc4cc(OC)ccc43)CC2)cc1 [Example 151] | < 10 | 30 to 80
19 | COc1ccc(S(=O)(=O)N2CCC(n3c(-c4ccccc4C#N)nc4cccnc43)CC2)cc1Cl [Example 50] | < 10 | 30 to 80
20 | COc1ccc(N(C2CCN(S(=O)(=O)c3ccc4c(c3)OC(F)(F)O4)CC2)S(=O)(=O)c2ccccc2Cl)nc1 [Example 219] | < 10 | 10 to 30
21 | O=S(=O)(c1ccc2c(c1)OC(F)(F)O2)N1CCC(n2c(-c3ccncc3F)nc3ncccc32)CC1 [Example 116] | < 10 | > 80

Row | SMILES | EC50 [µM] | Emax [%]
22 | O=C(c1ccccc1)N(c1ccccn1)C1CCN(S(=O)(=O)c2ccc3c(c2)OC(F)(F)O3)CC1 [Example 204] | < 10 | 10 to 30
23 | O=S(=O)(c1ccc2c(c1)CCC2)N1CCC(n2c(-c3ccncc3F)nc3cccnc32)CC1 [Example 51] | < 10 | 30 to 80
24 | COc1ccc(S(=O)(=O)N2CCC(N(C(=O)Nc3ccccc3Cl)c3ccccn3)CC2)cc1Cl [Example 178] | < 10 | 10 to 30
25 | Cc1ccc2nc(-c3ccccc3Cl)n(C3CCN(S(=O)(=O)c4ccc5c(c4)OC(F)(F)O5)CC3)c2n1 [Example 86] | < 10 | 30 to 80
26 | Cc1ccc2nc(-c3ccc4c(c3)OC(F)(F)O4)n(C3CCN(S(=O)(=O)c4ccc5c(c4)OC(F)(F)O5)CC3)c2n1 [Example 87] | > 20 | 10 to 30
27 | Cc1cc(C)c(S(=O)(=O)N(c2cccc(C)n2)C2CCN(S(=O)(=O)c3ccc4c(c3)OC(F)(F)O4)CC2)c(C)c1 [Example 194] | < 10 | 30 to 80
28 | Cc1ccc2nc(-c3ccc(F)cc3)n(C3CCN(S(=O)(=O)c4ccc5c(c4)OC(F)(F)O5)CC3)c2n1 [Example 84] | < 10 | 30 to 80
29 | CCc1ccc(S(=O)(=O)N2CCC(N(c3cccc(C)n3)S(=O)(=O)c3ccccc3)CC2)cc1 [Example 186] | < 10 | 10 to 30
30 | COc1ccc(S(=O)(=O)N2CCC(N(C(=O)c3ccccc3Cl)c3cccc(C)n3)CC2)cc1F [Example 200] | < 10 | 10 to 30
31 | Cc1cccc(N(C2CCN(S(=O)(=O)c3ccc4c(c3)OC(F)(F)O4)CC2)S(=O)(=O)c2ccccc2Cl)n1 [Example 191] | 10 to 20 | 10 to 30
32 | COc1ccc(S(=O)(=O)N2CCC(n3c(-c4ccccc4Cl)nc4cccnc43)CC2)cc1F [Example 60] | < 10 | 30 to 80
33 | CCc1ccc(S(=O)(=O)N2CCC(N(c3ccccn3)S(=O)(=O)c3ccccc3C)CC2)cc1 [Example 225] | < 10 | 10 to 30
34 | O=S(=O)(c1ccc2c(c1)OC(F)(F)O2)N1CCC(n2c(-c3ccccc3F)nc3cccnc32)CC1 [Example 130] | < 10 | 30 to 80
35 | O=S(=O)(c1ccc2c(c1)OCO2)N1CCC(n2c(-c3ccccc3C(F)(F)F)nc3cccnc32)CC1 [Example 100] | < 10 | 10 to 30
36 | COc1ccc(S(=O)(=O)N2CCC(n3c(-c4ccccc4)nc4cccnc43)CC2)cc1C [Example 73] | < 10 | 30 to 80
37 | COc1ccc(S(=O)(=O)N2CCC(n3c(-c4ccccc4)cc4cccnc43)CC2)cc1Cl [Example 98] | < 10 | 10 to 30
38 | CCc1ccc(S(=O)(=O)N2CCC(n3c(-c4ccncc4Cl)nc4cc(O)ccc43)CC2)cc1 [Example 168] | < 10 | 30 to 80
39 | Cc1ccc2nc(-c3cccnc3Cl)n(C3CCN(S(=O)(=O)c4ccc5c(c4)OCO5)CC3)c2n1 [Example 101] | < 10 | 10 to 30
40 | O=S(=O)(c1ccc2c(c1)OCO2)N1CCC(n2c(-c3ccc(F)cc3F)nc3cccnc32)CC1 [Example 108] | < 10 | 30 to 80
41 | COc1ccc(S(=O)(=O)N2CCC(n3c(-c4cccnc4Cl)nc4cccnc43)CC2)cc1Cl [Example 88] | > 20 | 30 to 80
42 | Cc1ccc2nc(-c3ccncc3F)n(C3CCN(S(=O)(=O)c4ccc5c(c4)OC(F)(F)O5)CC3)c2n1 [Example 112] | < 10 | > 80

Row | SMILES | EC50 [µM] | Emax [%]
43 | CCc1ccc(S(=O)(=O)N2CCC(N(C(=O)c3ccccc3Cl)c3cccc(C)n3)CC2)cc1 [Example 201] | < 10 | 30 to 80
44 | CCc1ccc(S(=O)(=O)N2CCC(n3c(-c4ccccc4Cl)nc4cc(OC)ccc43)CC2)cc1 [Example 155] | < 10 | 30 to 80
45 | CCc1ccc(S(=O)(=O)N2CCC(N(C(=S)c3ccccc3)c3ccccn3)CC2)cc1 [Example 195] | < 10 | 30 to 80
46 | CCc1ccc(S(=O)(=O)N2CCC(n3c(-c4ccncc4F)nc4cccnc43)CC2)cc1 [Example 110] | < 10 | 30 to 80
47 | O=S(=O)(c1ccc(OC(F)F)cc1)N1CCC(n2c(-c3ccccc3Cl)nc3cccnc32)CC1 [Example 46] | < 10 | 30 to 80
48 | CCc1ccc(S(=O)(=O)N2CCC(N(c3ccccn3)S(=O)(=O)c3ccc(Cl)cc3)CC2)cc1 [Example 235] | < 10 | 30 to 80
49 | COc1ccc(S(=O)(=O)N2CCC(N(C(=O)c3ccccc3)c3ccccn3)CC2)cc1F [Example 171] | < 10 | 10 to 30
50 | O=S(=O)(c1ccc2c(c1)OCO2)N1CCC(n2c(-c3ccncc3F)nc3cccnc32)CC1 [Example 107] | < 10 | 30 to 80
51 | CCc1ccc(S(=O)(=O)N2CCC(N(c3cccc(OC)c3)S(=O)(=O)c3ccccc3Cl)CC2)cc1 [Example 246] | 10 to 20 | 30 to 80
52 | N#Cc1ccc(S(=O)(=O)N2CCC(n3c(-c4ccccc4)nc4cccnc43)CC2)cc1Cl [Example 71] | < 10 | 10 to 30
53 | COc1ccc(S(=O)(=O)N2CCC(n3c(-c4ccc(F)cc4F)nc4cccnc43)CC2)cc1Cl [Example 53] | < 10 | 30 to 80
54 | COc1ccc2c(c1)nc(-c1ccccc1Cl)n2C1CCN(S(=O)(=O)c2ccc3c(c2)OC(F)(F)O3)CC1 [Example 153] | < 10 | 30 to 80
55 | O=S(=O)(c1ccc2c(c1)OCO2)N1CCC(n2c(-c3cccnc3F)nc3cccnc32)CC1 [Example 123] | < 10 | 10 to 30
56 | COc1ccc2c(c1)nc(-c1ccncc1F)n2C1CCN(S(=O)(=O)c2ccc3nc(C)oc3c2)CC1 [Example 163] | < 10 | > 80
57 | COc1ccc2c(c1)nc(-c1ccncc1Cl)n2C1CCN(S(=O)(=O)c2ccc3nc(C)oc3c2)CC1 [Example 160] | < 10 | 30 to 80
58 | COc1ccc(S(=O)(=O)N2CCC(n3c(-c4ccccc4OC(F)(F)F)nc4cccnc43)CC2)cc1Cl [Example 76] | < 10 | 30 to 80
59 | Cc1ccc(S(=O)(=O)N2CCC(n3c(-c4ccccc4Cl)nc4cccnc43)CC2)cc1C#N [Example 96] | < 10 | 30 to 80
60 | CCc1ccc(S(=O)(=O)N2CCC(N(c3cnc(OC)cn3)S(=O)(=O)c3ccccc3Cl)CC2)cc1 [Example 245] | < 10 | 30 to 80
61 | O=S(=O)(c1ccc2c(c1)OC(F)(F)O2)N1CCC(n2c(-c3ccncc3F)nc3cccnc32)CC1 [Example 52] | < 10 | 30 to 80
62 | CCc1ccc(S(=O)(=O)N2CCC(n3c(-c4ccncc4Cl)nc4cc(OC)ccc43)CC2)cc1 [Example 156] | < 10 | 30 to 80
